Each block holds one molecule with its values, some of them ahead of it.
Experiments:
[1] = system: LPS-induced acute lung injury; assay: LPS-induced acute lung injury (ALI) in mice; assay type: in vivo; details: LPS-treated mice, co-treatment
[2] = system: intracellular calcium in dHL-60 cells; assay: Fluo-4 calcium assay; assay type: cell-based, human
Experimental: Human leukemia line (HL-60) cells were differentiated (dHL-60) to neutrophil-like cells in the culture medium with the addition of 1.3% DMSO (Sigma) for 5 days in a humidified atmosphere at 37° C. without changing the medium. dHL-60 cells (2×10^5 cells/mL) were loaded with 5 μM fluo-4 AM for 45 minutes and washed three times with warmed modified (37° C.) HBSS buffer (137.93 mM NaCl, 5.33 mM KCl, 2 mM CaCl2), 1 mM MgSO4, 2.38 mM HEPES, 5.5 mM glucose, pH to 7.4). The cells were seeded on black-walled 96-well plates and then treated with vehicle (0.1% DMSO), ionomycin (5 μM; positive control) or PLAG (100 μg/mL) just before measurement. Baseline fluorescence was measured before treatment, and fluorescence was read every 20 s for 700 s using an excitation wavelength of 494 nm, an emission wavelength of 516 nm in a FlexStation 3 microplate reader (Molecular Devices). Fluorescence values were reported as F/Fo according to the calculation: [ΔF=(494 nm)f/(516 nm)f−(494 nm)0/(516 nm)0]. For studies in 0 mM external calcium, the cells were loaded as mentioned earlier. After being loaded, the cells were washed four times with calcium-free HBSS. The remainder of the study was carried out in calcium-free HBSS.
(§1) HL-60 cells were differentiated (dHL-60) to neutrophil-like cells in the culture medium with the addition of 1.3% DMSO (Sigma) for 5 days in a humidified atmosphere at 37° C. without changing the medium. dHL-60 cells (2×10^5 cells/mL) were loaded with 5 μM fluo-4 AM for 45 minutes and washed three times with warmed modified (37° C.) HBSS buffer (137.93 mM NaCl, 5.33 mM KCl, 2 mM CaCl2, 1 mM MgSO4, 2.38 mM HEPES, 5.5 mM glucose, pH to 7.4). […] Baseline fluorescence was measured before treatment, and fluorescence was read every 20 seconds for 700 seconds using an excitation wavelength of 494 nm, an emission wavelength of 516 nm in a FlexStation 3 microplate reader (Molecular Devices). Fluorescence values were reported as F/Fo according to the calculation: [ΔF=(494 nm)f/(516 nm)f−(494 nm)0/(516 nm)0]. […]
as §1, with “s” for “seconds”, “Devices).” for “Devices). Fluorescence values were reported as F/Fo according to the calculation: [ΔF=(494 nm)f/(516 nm)f−(494 nm)0/(516 nm)0].”

[3] = system: citrullinated histone H3 in dHL-60 cells; assay: Histone H3 citrullination, western blot; assay type: cell-based, human; details: time-dependent
Experimental: (§2) dHL-60 cells were lysed on ice for 30 minutes in RIPA buffer composed of 50 mM Tris-HCl (pH 7.4), 150 mM NaCl, 2 mM EDTA, 1% NP-40, 0.5% sodium deoxycholate, 0.1% SDS, 1 mM phenylmethylsulfonyl fluoride (PMSF), 10 mM sodium fluoride, 2 mM sodium pyrophosphate, 10 mM β-glycerophosphate, 10 mM sodium orthovanadate. The lysates were centrifuged at 13,000 rpm for 20 minutes at 4° C. and protein concentrations were determined using the Bradford assay (Bio-Rad Laboratories). Denatured samples were mixed with a 5×SDS-PAGE loading buffer and heated to 100° C. for 15 min. The samples were separated on the 10% of SDS-PAGE gel and transferred to polyvinylidene difluoride (PVDF) membranes (Merck Millipore Corporation, MA, USA). Membranes were blocked with 5% non-fat milk in PBS (10 mM Tris-HCl, pH7.5, 150 mM NaCl) for 1 h and probed with primary antibodies against histone H3 (citrulline R2+R8+R17) from abcam (USA) and β-actin from cell signaling (USA) for overnight at 4° C. The blots were washed and incubated with appropriate secondary antibodies and visualized using Pierce™ ECL Western Blotting Substrate (Thermo Scientific).

[4] = system: ERK, p38 MAPK, JNK in THP-1 cells; assay: Gemcitabine-induced phosphorylation of ERK, p38 MAPK, JNK, western blot; assay type: cell-based, human; details: inhibitor of NADPH oxidase
Experimental: as §2, with “Total” for “dHL-60”, “orthovanadate. Membrane-and-cytoplasmic protein fractions of cultured cells were obtained with Mem-PER Plus Membrane Protein Extraction Kit (Thermo Scientific, MA, USA) according to the manufacturer's instructions.” for “orthovanadate.”, “ERK1/2, phospho-ERK1/2, P38, phospho-P38, SAPK/JNK, phospho-SAPK/JNK, Na, K-ATPase, α-Tubulin,” for “histone H3 (citrulline R2+R8+R17) from abcam (USA)”, “Cell Signaling Technology (MA, USA), Rac1 from Merck Millipore Corporation), p47phox and phospho-p47phox from Invitrogen, adenosine receptor A1 from Abcam, β arrestin-1 from Santa Cruz Technology” for “cell signaling (USA)”, “Pierce” for “Pierce™”

[5] = system: gemcitabine-induced neutrophil extravasation; assay: Gemcitabine-induced neutropenia mice model; assay type: in vivo
Experimental: Male BALB/c mice were randomly divided into 3 groups; normal control group (n=5), gemcitabine only group (n=5) and gemcitabine with PLAG group (n=5). The mice were intraperitoneally (i.p.) injected with 50 mg/kg gemcitabine to induce neutropenia. PLAG was diluted with phosphate-buffered saline (PBS) and then orally administrated at a dose of 50 or 250 mg/kg/day. The normal control group was administered PBS only during the experiment. The whole blood was collected from the orbital sinuses using capillary tubes (Kimble Chase Life Science and Research Products LLC, FL, USA) and collection tubes containing K3E-K3EDTA (Greiner Bio-One International, Germany). To obtain peritoneal cells, 5 ml of cold PBS was injected to the left side of the peritoneal wall using a 5 mL syringe, and the fluid was aspirated from the peritoneum. The collected cells were counted by complete blood count (CBC) analysis using Mindray BC-5300 auto-hematology analyzer (Shenzhen Mindray Biomedical Electronics, China). To establish a 4T1 tumor-bearing mice model, the murine 4T1 mammary carcinoma cells (1×10^5) were subcutaneously injected on the right side of the abdomen. On the 10th day after tumor injection, the mice were intraperitoneally (i.p.) injected with 50 mg/kg gemcitabine, and the next day the whole blood was collected from the orbital sinuses as mentioned above before sacrificing the animals to obtain different organs of the body for RT-PCR.
PLAG inhibits gemcitabine-induced neutrophil extravasation into the peritoneum by down-regulating the expression of adhesion molecules in normal BALB/c mice. Male BALB/c mice of 8-10 weeks of age were orally administrated with 50 or 250 mg/kg of PLAG and then were intraperitoneally injected with 50 mg/kg gemcitabine. After 24 h, blood samples were collected by retro-orbital bleeding, and the number of blood neutrophils was determined by CBC analysis. Each group contains five mice. The population of blood neutrophils was analyzed by flow cytometry. Red cell-lysed whole blood was stained with FITC-conjugated anti-Ly6G and PE-Cy7-conjugated anti-CD11b antibodies to determine the circulating neutrophil population. Ly6G+/CD11b+ cells were further stained with APC-conjugated anti-L-selectin and APC-conjugated anti-LFA-1 antibodies and were analyzed by flow cytometry to determine the expression of adhesion molecules.
The mice were intraperitoneally (i.p.) injected with 50 mg/kg gemcitabine to induce neutropenia. PLAG was diluted with phosphate-buffered saline (PBS) and then orally administrated at a dose of 50 or 250 mg/kg/day. The normal control group was administered PBS only during the experiment. At 15 h after gemcitabine treatment, the whole blood was collected from the orbital sinuses using capillary tubes (Kimble Chase Life Science and Research Products LLC, FL, USA) and collection tubes containing K3E-K3EDTA (Greiner Bio-One International, Kremsmünster, Austria). To obtain peritoneal cells, 5 ml of cold PBS was injected to the left side of the peritoneal wall using a 5 mL syringe, and the fluid was aspirated from the peritoneum. The collected cells were counted by complete blood count (CBC) analysis using Mindray BC-5300 auto-hematology analyzer (Shenzhen Mindray Biomedical Electronics, Guangdong Sheng, China).
To establish a 4T1 tumor-bearing mice model, the murine 4T1 mammary carcinoma cells (1×105) were subcutaneously injected on the right side of the abdomen. On the 10th day after tumor injection, the mice were intraperitoneally (i.p.) injected with 50 mg/kg gemcitabine, and the next day the whole blood was collected from the orbital sinuses as mentioned above before sacrificing the animals to obtain different organs of the body.

[6] = normal BALB/c mice, 15 hours after gemcitabine 50 mg/kg i.p.

Compound: CCCCC/C=C\C/C=C\CCCCCCCC(=O)O [LA, linoleic acid, reference compound]
number of neutrophils in BALF [1]: no effect

Compound: COc1ccc2c(c1)CC[C@@H]1[C@@H]2CC[C@]2(C)[C@@H](NCCCCCCN3C(=O)C=CC3=O)CC[C@@H]12 [U73122, reference compound]
PLAG-induced intracellular calcium increase ([2]; PLC inhibitor, dose-dependent): inhibited

Compound: C[C@H](CCC(=O)O)C[C@H](C)C[C@H](C)C(=O)/C=C(\O)[C@H](C)C[C@H](C)C/C=C/[C@@H](C)[C@@H](O)[C@@H](C)[C@@H](O)C[C@@H]1CC[C@@](C)([C@H]2CC[C@@](C)([C@@H](C)O)O2)O1 [ionomycin, reference compound]
histone H3 citrullination [3]: induced
cytosolic calcium of dHL-60 cells ([2]; PLAG 100 μg/mL, ionomycin 5 μM): increased

Compound: c1ccc2c(c1)[I+]c1ccccc1-2 [DPI, diphenyleneiodonium, reference compound]
gemcitabine-induced phosphorylation of ERK, p38 MAPK and JNK [4]: dose-dependently decreased

Compound: CCCCCC=CCC=CCCCCCCCC(=O)OC(CO)CO [HLH, hydroxyl linoleic hydroxyl glycerol, reference compound]
number of neutrophils in BALF [1]: no effect

Compound: CCCCCCCCCCCCCCCC(=O)O [PA, palmitic acid, reference compound]
number of neutrophils in BALF [1]: no effect

mRNA expression of MIP-2 in tissues ([5]; 4T1 tumor-bearing mice, gemcitabine 50 mg/kg i.p.): increases
migration of circulating neutrophils into the peritoneal cavity ([5]; 4T1 tumor-bearing mice, one day after gemcitabine 50 mg/kg i.p.): induced the migration
circulating neutrophils [5, 6]: significant reduction
neutrophils in the peritoneal cavity [5, 6]: increase
Compound: Nc1ccn([C@@H]2O[C@H](CO)[C@@H](O)C2(F)F)c(=O)n1 [gemcitabine, reference compound]

Reference: patent US20220339135A1, “COMPOSITIONS AND METHODS FOR MODULATING AN INFLAMMATORY RESPONSE” (Enzychem Lifesciences Corporation, priority 2019, published 2022)
